This passage reports inhibition and IC50 results from patent US7125878B2, “Substituted pyrroline kinase inhibitors” (Janssen Pharmaceutica, priority 2002, dated 2006).

Broadly, the inhibition is the share of the control response that was lost under treatment. A word on the IC50: it is the point on the concentration scale where inhibition reaches its midpoint.

Values joined by “and” are separate entries in the source; they are usually repeats but may differ in a detail not shown here. Identical values can stand only once.

The target of one assay is T1, recombinant rabbit GSK-3β protein (Oryctolagus cuniculus, UniProt G1T8E2).
T1 construct: purchased New England Biolabs
T1 sequence (G1T8E2 1-432): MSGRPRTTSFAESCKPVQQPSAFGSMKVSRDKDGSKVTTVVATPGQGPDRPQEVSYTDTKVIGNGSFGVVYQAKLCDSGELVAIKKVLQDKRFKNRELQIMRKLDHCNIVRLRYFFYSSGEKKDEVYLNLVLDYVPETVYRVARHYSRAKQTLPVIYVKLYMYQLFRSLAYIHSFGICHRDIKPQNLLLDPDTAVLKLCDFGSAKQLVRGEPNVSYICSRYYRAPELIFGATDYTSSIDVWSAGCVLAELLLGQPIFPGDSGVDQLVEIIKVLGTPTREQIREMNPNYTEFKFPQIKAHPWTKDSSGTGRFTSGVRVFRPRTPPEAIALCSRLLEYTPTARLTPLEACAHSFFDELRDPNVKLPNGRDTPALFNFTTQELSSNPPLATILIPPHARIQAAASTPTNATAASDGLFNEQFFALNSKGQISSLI
Description: Glycogen Synthase Kinase-3 Assay (33P phosphorylation of PPI-2). In kind it is biochemical. Conditions: @100 nM. On the procedure: Glycogen Synthase Kinase-3 Assay
Compounds were tested for the ability to inhibit recombinant rabbit GSK-3β protein using the following protocol. The test compound was added to a reaction mixture containing Protein Phosphatase Inhibitor-2 (PPI-2) (Calbiochem) (45 ng), rabbit GSK-3β protein (New England Biolabs) (0.75 units) and ^33P-ATP (1 μCi) in 50 mM Tris-HCl (pH 8.0), 10 mM MgCl2, 0.1% BSA, 1 mM DTT and 100 μM Sodium Vanadate. The mixture was reacted for 90 minutes at 30° C. to allow phosphorylation of the PPI-2 protein and then the protein in the reaction was precipitated using 10% TCA. The precipitated protein was collected on filter plates (MultiScreen-DV/Millipore), which were subsequently washed. Finally, the radioactivity was quantified using a TopCount Scintillation Counter (Packard). […] Staurosporine or Valproate, known inhibitors of GSK-3β, were used as a positive control for screening.
With `O=C1NC(=O)C(c2cn(CCCO)c3ncccc23)=C1c1n[nH]c2ccccc12` [Cpd 6, 3-[1-(3-hydroxypropyl)-1H-pyrrolo[2,3-b]pyridin-3-yl]-4-(1H-indazol-3-yl)-1H-pyrrole-2,5-dione], the inhibition at 0.1 µM amounted to 56%. Still for that read-out and setting: for `O=C1NC(=O)C(c2cn(CCCO)c3ncccc23)=C1c1ncc[nH]1` [Cpd 17, 3-[1-(3-hydroxypropyl)-1H-pyrrolo[2,3-b]pyridin-3-yl]-4-(1H-imidazol-2-yl)-1H-pyrrole-2,5-dione] the value was 19%.

The same assay, now with this note: @200 nM.
As to `O=C1NC(=O)C(c2cn(CCCO)c3ncccc23)=C1c1cn(CCCO)cn1` [Cpd 18, 3-[1-(3-hydroxypropyl)-1H-imidazol-4-yl]-4-[1-(3-hydroxypropyl)-1H-pyrrolo[2,3-b]pyridin-3-yl]-1H-pyrrole-2,5-dione], the inhibition at 0.2 µM came out at 29%. Consider `O=C1NC(=O)C(c2cn(CCCO)c3ncccc23)=C1c1cn(CCO)cn1` [Cpd 19, 3-[1-(2-hydroxyethyl)-1H-imidazol-4-yl]-4-[1-(3-hydroxypropyl)-1H-pyrrolo[2,3-b]pyridin-3-yl]-1H-pyrrole-2,5-dione], for which the inhibition at 0.2 µM was 25%.

The same assay, now with this note: @1 μM; two numbers = different days.
Regarding `Cc1noc(C)c1C1=C(c2cn(CCCO)c3ncccc23)C(=O)NC1=O` [Cpd 44, 3-(3,5-Dimethyl-isoxazol-4-yl)-4-[1-(3-hydroxy-propyl)-1H-pyrrolo[2,3-b]pyridin-3-yl]-pyrrole-2,5-dione], the inhibition at 1 µM was 32%.

The assay is the same for the next values; noted with them: two numbers = data obtained on different days.
Turning to `CCn1cc(C2=C(c3cn(CCCO)c4ncccc34)C(=O)NC2=O)c2cccnc21` [Cpd 7, 3-(1-ethyl-1H-pyrrolo[2,3-b]pyridin-3-yl)-4-[1-(3-hydroxypropyl)-1H-pyrrolo[2,3-b]pyridin-3-yl]-1H-pyrrole-2,5-dione], the IC50 came out at 0.051 µM.

On to `COc1ccccc1C1=C(c2cn(CCCO)c3ncccc23)C(=O)NC1=O` [Cpd 8, 3-[1-(3-hydroxypropyl)-1H-pyrrolo[2,3-b]pyridin-3-yl]-4-(2-methoxyphenyl)-1H-pyrrole-2,5-dione], for which the IC50 amounted to 0.003 µM. As for `COc1cccc(C2=C(c3cn(CCCO)c4ncccc34)C(=O)NC2=O)c1` [Cpd 9, 3-[1-(3-hydroxypropyl)-1H-pyrrolo[2,3-b]pyridin-3-yl]-4-(3-methoxyphenyl)-1H-pyrrole-2,5-dione], the IC50 came to 0.011 µM. Still for that read-out and setting: the figure for `O=C1NC(=O)C(c2cn(CCCO)c3ncccc23)=C1c1ccc(F)cc1Cl` [Cpd 10, 3-(2-chloro-4-fluorophenyl)-4-[1-(3-hydroxypropyl)-1H-pyrrolo[2,3-b]pyridin-3-yl]-1H-pyrrole-2,5-dione] is 0.01 µM; for `O=C1NC(=O)C(c2cn(CCCO)c3ncccc23)=C1c1ccccc1C(F)(F)F` [Cpd 11, 3-[1-(3-hydroxypropyl)-1H-pyrrolo[2,3-b]pyridin-3-yl]-4-[2-(trifluoromethyl)phenyl]-1H-pyrrole-2,5-dione] it is 0.004 µM; for `O=C1NC(=O)C(c2cn(CCCO)c3ncccc23)=C1c1ncc(C(F)(F)F)cc1Cl` [Cpd 13, 3-[3-chloro-5-(trifluoromethyl)-2-pyridinyl]-4-[1-(3-hydroxypropyl)-1H-pyrrolo[2,3-b]pyridin-3-yl]-1H-pyrrole-2,5-dione] it is 0.036 µM. On the same count and under the same terms, the figure for `O=C1NC(=O)C(c2cn(CCCO)c3ncccc23)=C1c1cccs1` [Cpd 14, 3-[1-(3-hydroxypropyl)-1H-pyrrolo[2,3-b]pyridin-3-yl]-4-(2-thienyl)-1H-pyrrole-2,5-dione] is 0.006 µM. As for `O=C1NC(=O)C(c2cn(CCCO)c3ncccc23)=C1c1cc(Cl)sc1Cl` [Cpd 15, 3-(2,5-dichloro-3-thienyl)-4-[1-(3-hydroxypropyl)-1H-pyrrolo[2,3-b]pyridin-3-yl]-1H-pyrrole-2,5-dione], the IC50 is 0.006 µM. Regarding `O=C1NC(=O)C(c2cn(CCCO)c3ncccc23)=C1c1ccn(CCCO)n1` [Cpd 16, 3-[1-(3-hydroxypropyl)-1H-pyrazol-3-yl]-4-[1-(3-hydroxypropyl)-1H-pyrrolo[2,3-b]pyridin-3-yl]-1H-pyrrole-2,5-dione], the IC50 stood at 0.1 µM. For the compound `O=C1NC(=O)C(c2cn(CCCO)c3ncccc23)=C1/C=C/c1ccc(F)cc1` [Cpd 22, 3-[(E)-2-(4-fluorophenyl)ethenyl]-4-[1-(3-hydroxypropyl)-1H-pyrrolo[2,3-b]pyridin-3-yl]-1H-pyrrole-2,5-dione], the IC50 amounted to 0.33 µM.

As for `O=C1NC(=O)C(c2cn(CCCO)c3ncccc23)=C1C1=CCCCO1` [Cpd 23, 3-(3,4-dihydro-2H-pyran-6-yl)-4-[1-(3-hydroxypropyl)-1H-pyrrolo[2,3-b]pyridin-3-yl]-1H-pyrrole-2,5-dione], the IC50 was 0.158 µM and 0.051 µM. Same read-out and setting: the figure for `O=C1NC(=O)C(c2cn(CCCO)c3ncccc23)=C1c1cc[nH]c1` [Cpd 24, 4-[1-(3-hydroxypropyl)-1H-pyrrolo[2,3-b]pyridin-3-yl]-[3,3′-bi-1H-pyrrole]-2,5-dione] is 0.015 µM and 0.008 µM.

As to `O=C1NC(=O)C(c2cn(CCCO)c3ncccc23)=C1c1cc2ccccc2o1` [Cpd 25, 3-(2-benzofuranyl)-4-[1-(3-hydroxypropyl)-1H-pyrrolo[2,3-b]pyridin-3-yl]-1H-pyrrole-2,5-dione], the IC50 was 0.071 µM and 0.044 µM. Same read-out and setting: the figure for `Cn1ccc(C2=C(c3cn(CCCO)c4ncccc34)C(=O)NC2=O)n1` [Cpd 26, 3-[1-(3-hydroxypropyl)-1H-pyrrolo[2,3-b]pyridin-3-yl]-4-(1-methyl-1H-pyrazol-3-yl)-1H-pyrrole-2,5-dione] is 0.07 µM and 0.12 µM. Turning to `O=C1NC(=O)C(c2cn(CCCO)c3ncccc23)=C1c1ccc(O)c(O)c1` [Cpd 32, 3-(3,4-dihydroxyphenyl)-4-[1-(3-hydroxypropyl)-1H-pyrrolo[2,3-b]pyridin-3-yl]-1H-pyrrole-2,5-dione], the IC50 was 0.067 µM and 0.095 µM. Same read-out and setting: the figure for `O=C1NC(=O)C(c2cn(CCCO)c3ncccc23)=C1c1cncnc1` [Cpd 41, 3-[1-(3-Hydroxy-propyl)-1H-pyrrolo[2,3-b]pyridin-3-yl]-4-pyrimidin-5-yl-pyrrole-2,5-dione] is 0.037 µM and 0.042 µM; for `O=C1NC(=O)C(c2cccc3cccnc23)=C1c1cn(CCCO)c2ncccc12` [Cpd 42, 3-[1-(3-Hydroxy-propyl)-1H-pyrrolo[2,3-b]pyridin-3-yl]-4-quinolin-8-yl-pyrrole-2,5-dione] it is 0.123 µM and 0.106 µM. Same read-out and setting: for `O=C1NC(=O)C(c2cn(CCCO)c3ncccc23)=C1c1cc2ccccc2s1` [Cpd 43, 3-Benzo[b]thiophen-2-yl-4-[1-(3-hydroxy-propyl)-1H-pyrrolo[2,3-b]pyridin-3-yl]-pyrrole-2,5-dione] the value was 0.198 µM and 0.126 µM. As for `O=C1NC(=O)C(c2cn(CCCO)c3ncccc23)=C1c1cccoc1=O` [Cpd 45, 3-[1-(3-Hydroxy-propyl)-1H-pyrrolo[2,3-b]pyridin-3-yl]-4-(2-oxo-2H-pyran-3-yl)-pyrrole-2,5-dione], the IC50 was 0.028 µM and 0.018 µM. On the same count and under the same terms, the figure for `Cn1ccc(C2=C(c3cn(CCCO)c4ncccc34)C(=O)NC2=O)c1` [Cpd 46, 4-[1-(3-Hydroxy-propyl)-1H-pyrrolo[2,3-b]pyridin-3-yl]-1′-methyl-1′H-[3,3′]bipyrrolyl-2,5-dione] is 0.038 µM and 0.037 µM; for `O=C1NC(=O)C(c2cn(CCCO)c3ncccc23)=C1c1ccn(Cc2ccccc2)c1` [Cpd 48, 1′-Benzyl-4-[1-(3-hydroxy-propyl)-1H-pyrrolo[2,3-b]pyridin-3-yl]-1′H-[3,3′]bipyrrolyl-2,5-dione] it is 0.047 µM and 0.038 µM.
